Reference: US3945994A, “Novel acid compounds” (Gist-Brocades N.V., priority 1973, dated 1976)
Values after ≈ are worked out from the molar mass of the structure shown.

Assays:
Type in all cases: cell-based
[1] = system: Salmonella typhimurium R 127; details: Salmonella enterica, agar serial dilution, 24 hours at 37°C
[2] = system: Staphylococcus aureus A 2000; details: A2000, agar serial dilution, 24 hours at 37°C
[3] = system: Klebsiella pneumoniae A 809; details: A809, agar serial dilution, 24 hours at 37°C
[4] = system: Pseudomonas aeruginosa Wyeth A 1058; details: WYETHA1058, agar serial dilution, 24 hours at 37°C
[5] = system: Streptococcus faecalis L 80; details: Enterococcus faecalis, L80; agar serial dilution, 24 hours at 37°C
[6] = system: Proteus mirabilis A 1200; details: A1200, agar serial dilution, 24 hours at 37°C
[7] = system: Proteus morganii 2241; details: Morganella morganii, agar serial dilution, 24 hours at 37°C
[8] = system: Escherichia coli U 20; details: U20, agar serial dilution, 24 hours at 37°C
[9] = system: Bacillus subtilis ATCC 6633; details: ATCC6633, agar serial dilution, 24 hours at 37°C
[10] = system: Pseudomonas aeruginosa 2396; details: agar serial dilution, 24 hours at 37°C
[11] = system: Pseudomonas aeruginosa H 10; details: H10, agar serial dilution, 24 hours at 37°C
[12] = system: Streptococcus haemolyticus A 266; details: A266, agar serial dilution, 24 hours at 37°C
[13] = system: Pasteurella multocida A 723; details: A723, agar serial dilution, 24 hours at 37°C
[14] = system: Staphylococcus aureus A 355'; details: agar serial dilution, 24 hours at 37°C
[15] = system: Proteus rettgeri A 821; details: Providencia rettgeri, A821; agar serial dilution, 24 hours at 37°C
[16] = system: Staphylococcus aureus A 321; details: A321, agar serial dilution, 24 hours at 37°C
[17] = system: Salmonella dublin P 43; details: Salmonella enterica, P43; agar serial dilution, 24 hours at 37°C
[18] = system: Staphylococcus aureus A 2001; details: A2001, agar serial dilution, 24 hours at 37°C
[19] = system: Proteus mirabilis H 3; details: H3, agar serial dilution, 24 hours at 37°C

| MIC [1] | MIC [2] | MIC [3] | MIC [4] | MIC [5] | MIC [6] | MIC [7] | MIC [8] | MIC [9] | MIC [10] | MIC [11] | MIC [13] | MIC [14] | MIC [15] | MIC [16] | MIC [17] | MIC [18] | MIC [19] | SMILES | MIC [12] |
| --- | --- | --- | --- | --- | --- | --- | --- | --- | --- | --- | --- | --- | --- | --- | --- | --- | --- | --- | --- |
| 50 µg/mL (≈ 97.4 µM) | 25 µg/mL (≈ 48.7 µM) | 100 µg/mL (≈ 195 µM) | > 100 µg/mL | 25 µg/mL (≈ 48.7 µM) | 6 µg/mL (≈ 11.7 µM) | 100 µg/mL (≈ 195 µM) | 25 µg/mL (≈ 48.7 µM) | 1.5 µg/mL (≈ 2.92 µM) | > 100 µg/mL | > 100 µg/mL | 0.5 µg/mL (≈ 0.974 µM) | 25 µg/mL (≈ 48.7 µM) | 0.75 µg/mL (≈ 1.46 µM) | 1.5 µg/mL (≈ 2.92 µM) |  |  |  | CC(C)NS(=O)(=O)NC(=O)N[C@@H](C(=O)N[C@@H]1C(=O)N2[C@@H]1SC(C)(C)[C@@H]2C(=O)O)c1ccccc1 [IX, D-6-[α-{3-(isopropylaminosulfonyl)-ureido}-benzylcarbonamido]-penicillanic acid] | 0.75 µg/mL (≈ 1.46 µM) |
| 25 µg/mL (≈ 45.2 µM) | 25 µg/mL (≈ 45.2 µM) | 50 µg/mL (≈ 90.5 µM) | 25 µg/mL (≈ 45.2 µM) | 25 µg/mL (≈ 45.2 µM) | 1.5 µg/mL (≈ 2.71 µM) | 50 µg/mL (≈ 90.5 µM) | 25 µg/mL (≈ 45.2 µM) | 1.5 µg/mL (≈ 2.71 µM) | 25 µg/mL (≈ 45.2 µM) | 100 µg/mL (≈ 181 µM) | 1.5 µg/mL (≈ 2.71 µM) | 25 µg/mL (≈ 45.2 µM) | 6 µg/mL (≈ 10.9 µM) | 3 µg/mL (≈ 5.43 µM) | 12.5 µg/mL (≈ 22.6 µM) | 12.5 µg/mL (≈ 22.6 µM) | 6 µg/mL (≈ 10.9 µM) | Cc1cc(NS(=O)(=O)NC(=O)N[C@@H](C(=O)N[C@@H]2C(=O)N3[C@@H]2SC(C)(C)[C@@H]3C(=O)O)c2ccccc2)no1 [XII, D-6-[α-{3-(5-methylisoxazol-3-yl-aminosulfonyl)-ureido}-benzylcarbonamido]-penicillanic acid] | 1.5 µg/mL (≈ 2.71 µM) |
| > 100 µg/mL | 25 µg/mL (≈ 53 µM) | > 100 µg/mL | 50 µg/mL (≈ 106 µM) | 6 µg/mL (≈ 12.7 µM) | 25 µg/mL (≈ 53 µM) | > 100 µg/mL | 100 µg/mL (≈ 212 µM) | 0.5 µg/mL (≈ 1.06 µM) | 50 µg/mL (≈ 106 µM) | > 100 µg/mL | 0.5 µg/mL (≈ 1.06 µM) | 25 µg/mL (≈ 53 µM) | 25 µg/mL (≈ 53 µM) | 3 µg/mL (≈ 6.36 µM) | 100 µg/mL (≈ 212 µM) | 6 µg/mL (≈ 12.7 µM) | 50 µg/mL (≈ 106 µM) | CC1(C)S[C@@H]2[C@H](NC(=O)[C@H](NC(=O)NS(N)(=O)=O)c3ccccc3)C(=O)N2[C@H]1C(=O)O [XVI, D-6-[α-{3-(aminosulfonyl)-ureido}-benzylcarbonamido]-penicillanic acid] | 0.12 µg/mL (≈ 0.254 µM) |

Continued, molecule first:

| SMILES | MIC [1] | MIC [2] | MIC [3] | MIC [4] | MIC [5] | MIC [6] | MIC [7] | MIC [8] | MIC [9] | MIC [10] | MIC [11] | MIC [13] | MIC [14] | MIC [15] | MIC [16] | MIC [17] | MIC [18] | MIC [19] | MIC [12] |
| --- | --- | --- | --- | --- | --- | --- | --- | --- | --- | --- | --- | --- | --- | --- | --- | --- | --- | --- | --- |
| CC1(C)S[C@@H]2[C@H](NC(=O)[C@H](NC(=O)NS(=O)(=O)N3CCOCC3)c3ccccc3)C(=O)N2[C@H]1C(=O)O [XIV, D-6-[α-{3-(morpholino-sulfonyl)-ureido}-benzylcarbonamido]-penicillanic acid] | 100 µg/mL (≈ 185 µM) | 25 µg/mL (≈ 46.2 µM) | 100 µg/mL (≈ 185 µM) | 100 µg/mL (≈ 185 µM) | 25 µg/mL (≈ 46.2 µM) | 3 µg/mL (≈ 5.54 µM) | 100 µg/mL (≈ 185 µM) | 50 µg/mL (≈ 92.3 µM) | 1.5 µg/mL (≈ 2.77 µM) | 50 µg/mL (≈ 92.3 µM) | 100 µg/mL (≈ 185 µM) | 0.25 µg/mL (≈ 0.462 µM) | 25 µg/mL (≈ 46.2 µM) | 1.5 µg/mL (≈ 2.77 µM) | 6 µg/mL (≈ 11.1 µM) | 50 µg/mL (≈ 92.3 µM) | 12.5 µg/mL (≈ 23.1 µM) | 6 µg/mL (≈ 11.1 µM) | 3 µg/mL (≈ 5.54 µM) |
| CC1(C)S[C@@H]2[C@H](NC(=O)[C@H](NS(N)(=O)=O)c3ccccc3)C(=O)N2[C@H]1C(=O)O [XVIII, D-6-[α-(aminosulfonylamino)-benzylcarbonamido]-penicillanic acid] | 12.5 µg/mL (≈ 29.2 µM) | 6 µg/mL (≈ 14 µM) | > 100 µg/mL | > 100 µg/mL | 1.5 µg/mL (≈ 3.5 µM) | 6 µg/mL (≈ 14 µM) | 25 µg/mL (≈ 58.3 µM) | 12.5 µg/mL (≈ 29.2 µM) | 0.5 µg/mL (≈ 1.17 µM) | 50 µg/mL (≈ 117 µM) | > 100 µg/mL | 0.5 µg/mL (≈ 1.17 µM) | 12.5 µg/mL (≈ 29.2 µM) | 1.5 µg/mL (≈ 3.5 µM) | 0.5 µg/mL (≈ 1.17 µM) | 6 µg/mL (≈ 14 µM) | 3 µg/mL (≈ 7 µM) | 12.5 µg/mL (≈ 29.2 µM) | 0.06 µg/mL (≈ 0.14 µM) |
